Data published in ChEMBL document CHEMBL3745606, “Dissection of N,N-diethyl-N'-phenylpiperazines as α7 nicotinic receptor silent agonists” (Bioorg Med Chem, 2016).
Calls of active or inactive are those of the source. The calls are words filed in the database; no cut-off is given here.

Assays:
[1] = target: T1, Neuronal acetylcholine receptor; alpha3/beta4 (Homo sapiens) (UniProt P30926+P32297); assay: Partial agonist activity at human alpha3beta4 nAChR expressed in xenopus oocytes assessed as induction of PAM-sensitive desensitization at 30 uM by two-electrode voltage clamp electrophysiology relative to acetylcholine; assay type: cell-based
[2] = target: Neuronal acetylcholine receptor subunit alpha-7 (Homo sapiens) (UniProt P36544); assay: Agonist activity at human alpha7 nAChR expressed in xenopus oocytes assessed as induction of PAM-sensitive desensitization at 30 uM by two-electrode voltage clamp electrophysiology relative to acetylcholine; assay type: cell-based
[3] = target: Neuronal acetylcholine receptor subunit alpha-7 (Homo sapiens) (UniProt P36544); assay: Agonist activity at human alpha7 nAChR expressed in xenopus oocytes assessed as potentiation of PNU-120596-induced PAM-sensitive desensitization at 30 uM by two-electrode voltage clamp electrophysiology relative to acetylcholine; assay type: cell-based
[4] = target: Neuronal acetylcholine receptor subunit alpha-7 (Homo sapiens) (UniProt P36544); assay: Partial agonist activity at human alpha7 nAChR expressed in xenopus oocytes assessed as potentiation of PNU-120596-induced PAM-sensitive desensitization at 30 uM by two-electrode voltage clamp electrophysiology relative to acetylcholine; assay type: cell-based
[5] = target: Neuronal acetylcholine receptor subunit alpha-7 (Homo sapiens) (UniProt P36544); assay: Partial agonist activity at human alpha7 nAChR expressed in xenopus oocytes assessed as induction of PAM-sensitive desensitization at 30 uM by two-electrode voltage clamp electrophysiology relative to acetylcholine; assay type: cell-based
[6] = target: Neuronal acetylcholine receptor subunit alpha-7 (Homo sapiens) (UniProt P36544); assay: Partial agonist activity at human alpha7 nAChR expressed in xenopus oocytes assessed as induction of PAM-sensitive desensitization by measuring ratio of peak current to net charge at 30 uM by two-electrode voltage clamp electrophysiology relative to acetylcholine; assay type: cell-based
[7] = target: T1, Neuronal acetylcholine receptor; alpha3/beta4 (Homo sapiens); assay: Antagonist activity at human alpha3beta4 nAChR expressed in xenopus oocytes at 100 uM by two-electrode voltage clamp electrophysiology; assay type: cell-based
[8] = target: T2, Neuronal acetylcholine receptor; alpha4/beta2 (Homo sapiens) (UniProt P17787+P43681); assay: Partial agonist activity at alpha4beta2 nAChR (unknown origin) at 100 uM; assay type: protein-complex assay
[9] = target: T2, Neuronal acetylcholine receptor; alpha4/beta2 (Homo sapiens); assay: Antagonist activity at alpha4beta2 nAChR (unknown origin) at 100 uM; assay type: protein-complex assay

Neuronal acetylcholine receptor subunit alpha-7 (Homo sapiens), sequence (P36544 whole entry): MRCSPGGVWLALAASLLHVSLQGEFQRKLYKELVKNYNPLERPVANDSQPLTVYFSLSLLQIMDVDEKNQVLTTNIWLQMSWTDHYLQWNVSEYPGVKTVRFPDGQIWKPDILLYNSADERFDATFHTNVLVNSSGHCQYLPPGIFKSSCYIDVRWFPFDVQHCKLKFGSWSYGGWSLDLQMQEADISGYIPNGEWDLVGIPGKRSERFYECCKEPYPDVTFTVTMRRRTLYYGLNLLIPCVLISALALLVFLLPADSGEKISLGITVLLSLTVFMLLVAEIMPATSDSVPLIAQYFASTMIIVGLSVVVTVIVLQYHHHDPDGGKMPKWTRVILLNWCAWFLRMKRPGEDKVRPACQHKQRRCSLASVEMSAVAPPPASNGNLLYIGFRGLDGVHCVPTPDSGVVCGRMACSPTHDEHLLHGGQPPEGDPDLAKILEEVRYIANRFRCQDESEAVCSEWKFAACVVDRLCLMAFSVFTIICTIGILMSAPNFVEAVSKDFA

SMILES	Activity [1]	fold change (FC) [2]	Activity [3] [%]	fold change (FC) [3]	Activity [4] [%]	fold change (FC) [4]	fold change (FC) [5]	Ratio [6]	Activity [7]	Activity [8]	Activity [9]
CC[N+]1(CC)CCN(c2ccc(OC)cc2)CC1	inactive	0.063	< 10	11.6							
CC[N+]1(CC)CCN(c2ccc(Br)cc2)CC1		0.27	< 10	12.3							
CC[N+]1(CC)CCN(c2cccc(F)c2)CC1	inactive	0.061	< 10	0.2							
CC[N+]1(CC)CCN(c2cccc(C)c2)CC1	inactive	0.001	< 10	0.2							
CC[N+]1(CC)CCN(c2ccccc2)CC1		0.002	< 10	1.3							
CCN1CCN(c2cccc(Br)c2)CC1	inactive	0	< 10	6.9							
CC[N+]1(CC)CCN(c2ccc(C(N)=O)cc2)CC1	inactive	0.065	< 10	43.9							
CC[N+]1(CC)CCN(c2ccc3ccccc3c2)CC1					< 10	15.9	0.143	0.71			
CC[N+]1(CC)CCN(c2ccc(F)cc2)CC1	inactive	0.01	< 10	22.9							
CC[N+]1(CC)CCN(c2ccc(Cl)cc2)CC1					< 10	18.3	0.234	0.71			
CC[N+]1(CC)CCN(c2cccc(OC)c2)CC1	inactive	0.011	< 10	0.6					Active		
CC[N+]1(CC)CCN(c2ccc(OC)cc2OC)CC1		0.014	< 10	1.1							
CCN1CCN(c2ccc(F)cc2)CC1	inactive	0	< 10	0							
CC[N+]1(CC)CCN(c2ccccc2Cl)CC1					< 10	36.6	0.367	0.63			
CC[N+]1(CC)CCN(c2ccccc2C)CC1					< 10	16.4	0.319	0.46			
CC[N+]1(CC)CCC(=Cc2ccccc2)CC1	inactive	0.071	< 10	9.9							
CC[N+]1(CC)CCN(c2cccc(C(F)(F)F)c2)CC1	inactive	0	< 10	3.1							
CC[N+]1(CC)CCN(c2cccc(Br)c2)CC1	inactive	0.04	< 10	10						inactive	inactive
CC[N+]1(CC)CCN(c2ccc(C(F)(F)F)cc2)CC1	inactive	0.032	< 10	61.8						inactive	inactive
CC[N+]1(CC)CCN(c2cccc(O)c2)CC1					< 10	31.4	0.283	0.67			
CC[N+]1(CC)CCN(c2ccc(C#N)cc2)CC1					< 10	68	0.234	0.43			
CC[N+]1(CC)CCN(c2ccc(C)cc2)CC1	inactive	0.011	< 10	3.6							
CC[N+]1(CC)CCN(c2cccc(C(N)=O)c2)CC1	inactive	0.056	< 10	50.7							
CC[N+]1(CC)CCN(c2cccc(C#N)c2)CC1	inactive	0.022	< 10	1.5							
CC[N+]1(CC)CCN(c2cccc(Cl)c2)CC1	inactive	0.02	< 10	4.2							
CCN1CCN(c2ccc(C(F)(F)F)cc2)CC1	inactive	0	< 10	1.4							
CC[N+]1(CC)CCC(Nc2ccccc2)CC1	inactive	0.002	< 10	5.6							
CCN1CCN(c2cccc(Cl)c2)CC1	inactive	0.009	< 10	0.1							
